Here are results for eight compounds from ChEMBL document CHEMBL1147194, “Synthesis and evaluation of galactofuranosyl N,N-dialkyl sulfenamides and sulfonamides as antimycobacterial agents” (2007).

Converted amounts (≈) assume the structure as drawn.

This assay deals with Mycolicibacterium smegmatis. In words: Antimycobacterial activity against Mycobacterium smegmatis ATCC 14468 after 72 hrs by broth microdilution assay. Particulars: ATCC 14468, 72 h. Format: functional.
In turn, `CCCCCCN(CCCCCC)S[C@@H]1O[C@@H]([C@H](O)CO)[C@H](O)[C@H]1O` returned an MIC greater than 64 µg/mL.

Take `CCCCCCCCN(CCCCCCCC)S[C@@H]1O[C@@H]([C@H](O)CO)[C@H](O)[C@H]1O`: the lowest concentration to inhibit growth (MIC) was 4 µg/mL (≈ 9.18 µM).

For the compound `OC[C@@H](O)[C@@H]1O[C@@H](SN(Cc2ccccc2)Cc2ccccc2)[C@H](O)[C@H]1O`, the lowest concentration to inhibit growth (MIC) was 16 µg/mL (≈ 40.9 µM).

As to `CCCCCCN(CCCCCC)S(=O)(=O)[C@@H]1O[C@@H]([C@H](O)CO)[C@H](O)[C@H]1O`, the MIC was determined as 64 µg/mL (≈ 156 µM).

In the case of `CCCCCCCCCCN(CCCCCCCCCC)S(=O)(=O)[C@@H]1O[C@@H]([C@H](O)CO)[C@H](O)[C@H]1O`, the MIC was greater than 32 µg/mL.

`O=S(=O)([C@@H]1O[C@@H]([C@H](O)CO)[C@H](O)[C@H]1O)N(Cc1ccccc1)Cc1ccccc1` displayed an MIC greater than 64 µg/mL.

Regarding `CCCCCCCCCCN(CCCCCCCCCC)S[C@@H]1O[C@@H]([C@H](O)CO)[C@H](O)[C@H]1O`, inhibition of growth (MIC) required 1 µg/mL (≈ 2.03 µM).

As for `CCCCCCCCN(CCCCCCCC)S(=O)(=O)[C@@H]1O[C@@H]([C@H](O)CO)[C@H](O)[C@H]1O`, inhibition of growth (MIC) required 2 µg/mL (≈ 4.28 µM).
